Data taken from PubChem BioAssay (NCI).
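Exposure lasted 48 hours, with cells grown in 96-well plates and compounds tested at five concentrations. GI50 marks 50% less growth. Definition used: TGI = concentration required for complete inhibition of growth.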

How the values were obtained:
Experiment in all cases: inhibition of tumour cell growth, NCI panel, 48 h
OVCAR-8 ovarian = test system: OVCAR-8 ovarian
RXF 393 renal = test system: RXF 393 renal
UACC-62 melanoma = test system: UACC-62 melanoma
MCF7 breast = test system: MCF7 breast
M14 melanoma = test system: M14 melanoma
NCI-H522 lung = test system: NCI-H522 lung
A498 renal = test system: A498 renal
MDA-MB-435 = test system: MDA-MB-435
786-0 renal = test system: 786-0 renal
BT-549 breast = test system: BT-549 breast
SW-620 colon = test system: SW-620 colon
PC-3 prostate = test system: PC-3 prostate
MDA-MB-231 breast = test system: MDA-MB-231 breast
TK-10 renal = test system: TK-10 renal
HOP-92 NSCLC = test system: HOP-92 NSCLC
ACHN renal = test system: ACHN renal
NCI-H23 lung = test system: NCI-H23 lung
HCT-15 colon = test system: HCT-15 colon
OVCAR-5 ovarian = test system: OVCAR-5 ovarian
DU-145 prostate = test system: DU-145 prostate
MALME-3M melanoma = test system: MALME-3M melanoma
SK-MEL-28 melanoma = test system: SK-MEL-28 melanoma
HCT-116 colon = test system: HCT-116 colon
SK-MEL-5 melanoma = test system: SK-MEL-5 melanoma
T-47D breast = test system: T-47D breast
SN12C renal = test system: SN12C renal
K-562 leukemia = test system: K-562 leukemia
OVCAR-3 ovarian = test system: OVCAR-3 ovarian
CCRF-CEM leukemia = test system: CCRF-CEM leukemia
MOLT-4 leukemia = test system: MOLT-4 leukemia
SR leukemia = test system: SR leukemia
HL-60(TB) leukemia = test system: HL-60(TB) leukemia
SF-539 CNS = test system: SF-539 CNS
UACC-257 melanoma = test system: UACC-257 melanoma
NCI-H460 lung = test system: NCI-H460 lung
UO-31 renal = test system: UO-31 renal
HOP-62 NSCLC = test system: HOP-62 NSCLC
SK-OV-3 ovarian = test system: SK-OV-3 ovarian
IGROV1 ovarian = test system: IGROV1 ovarian
HT29 colon = test system: HT29 colon
OVCAR-4 ovarian = test system: OVCAR-4 ovarian
NCI/ADR-RES ovarian = test system: NCI/ADR-RES ovarian
SK-MEL-2 melanoma = test system: SK-MEL-2 melanoma
COLO 205 colon = test system: COLO 205 colon
LOX IMVI melanoma = test system: LOX IMVI melanoma
A549 NSCLC = test system: A549 NSCLC
U251 CNS = test system: U251 CNS
SNB-75 CNS = test system: SNB-75 CNS
RPMI-8226 leukemia = test system: RPMI-8226 leukemia
NCI-H226 lung = test system: NCI-H226 lung
SF-295 CNS = test system: SF-295 CNS
KM12 colon = test system: KM12 colon
HCC-2998 colon = test system: HCC-2998 colon
SNB-19 CNS = test system: SNB-19 CNS
SF-268 CNS = test system: SF-268 CNS

COc1cc(-c2cncn2-c2ccc(-c3nc4ccc(F)cc4s3)cc2)ccc1F
GI50 (OVCAR-8 ovarian): 15.2 µM | TGI (OVCAR-8 ovarian): > 100 µM | GI50 (RXF 393 renal): 13.5 µM | TGI (RXF 393 renal): > 100 µM | GI50 (UACC-62 melanoma): 8.67 µM | TGI (UACC-62 melanoma): > 100 µM | GI50 (MCF7 breast): 23.5 µM | TGI (MCF7 breast): > 100 µM | GI50 (M14 melanoma): 33.4 µM | TGI (M14 melanoma): > 100 µM | GI50 (NCI-H522 lung): 9.9 µM | TGI (NCI-H522 lung): 37.2 µM | GI50 (A498 renal): 43.2 nM | TGI (A498 renal): 16.9 µM | GI50 (MDA-MB-435): 17.1 µM | TGI (MDA-MB-435): > 100 µM | GI50 (786-0 renal): 36.1 µM | TGI (786-0 renal): > 100 µM | GI50 (BT-549 breast): 11.5 µM | TGI (BT-549 breast): 79 µM | GI50 (SW-620 colon): 7.81 µM | TGI (SW-620 colon): > 100 µM | GI50 (PC-3 prostate): 3.47 µM | TGI (PC-3 prostate): > 100 µM | GI50 (MDA-MB-231 breast): 32.2 µM | TGI (MDA-MB-231 breast): > 100 µM | GI50 (TK-10 renal): 38.8 µM | TGI (TK-10 renal): > 100 µM | GI50 (HOP-92 NSCLC): 5.47 µM | TGI (HOP-92 NSCLC): 91.8 µM | GI50 (ACHN renal): 29.1 µM | TGI (ACHN renal): > 100 µM | GI50 (NCI-H23 lung): 8.25 µM | TGI (NCI-H23 lung): > 100 µM | GI50 (HCT-15 colon): 82.3 µM | TGI (HCT-15 colon): > 100 µM | GI50 (OVCAR-5 ovarian): > 100 µM | TGI (OVCAR-5 ovarian): > 100 µM | GI50 (DU-145 prostate): 14.3 µM | TGI (DU-145 prostate): 73.3 µM | GI50 (MALME-3M melanoma): 11.1 µM | TGI (MALME-3M melanoma): > 100 µM | GI50 (SK-MEL-28 melanoma): 35.1 µM | TGI (SK-MEL-28 melanoma): > 100 µM | GI50 (HCT-116 colon): 4.36 µM | TGI (HCT-116 colon): 38.7 µM | GI50 (SK-MEL-5 melanoma): 12.1 µM | TGI (SK-MEL-5 melanoma): > 100 µM | GI50 (T-47D breast): 7.98 µM | TGI (T-47D breast): > 100 µM | GI50 (SN12C renal): 31.9 µM | TGI (SN12C renal): > 100 µM | GI50 (K-562 leukemia): 3.93 µM | TGI (K-562 leukemia): > 100 µM | GI50 (OVCAR-3 ovarian): 5.71 µM | TGI (OVCAR-3 ovarian): 37.3 µM | GI50 (CCRF-CEM leukemia): 6.92 µM | TGI (CCRF-CEM leukemia): > 100 µM | GI50 (MOLT-4 leukemia): 3.41 µM | TGI (MOLT-4 leukemia): > 100 µM | GI50 (SR leukemia): 4.99 µM | TGI (SR leukemia): > 100 µM | GI50 (HL-60(TB) leukemia): 2500 nM | TGI (HL-60(TB) leukemia): 7.37 µM | GI50 (SF-539 CNS): 75.9 µM | TGI (SF-539 CNS): > 100 µM | GI50 (UACC-257 melanoma): 4.11 µM | TGI (UACC-257 melanoma): > 100 µM | GI50 (NCI-H460 lung): 5.7 µM | TGI (NCI-H460 lung): 20.7 µM | GI50 (UO-31 renal): 16.5 µM | TGI (UO-31 renal): > 100 µM | GI50 (HOP-62 NSCLC): 40.7 µM | TGI (HOP-62 NSCLC): > 100 µM | GI50 (SK-OV-3 ovarian): > 100 µM | TGI (SK-OV-3 ovarian): > 100 µM | GI50 (IGROV1 ovarian): 15.4 µM | TGI (IGROV1 ovarian): 47.7 µM | GI50 (HT29 colon): 10.8 µM | TGI (HT29 colon): > 100 µM | GI50 (OVCAR-4 ovarian): 11.4 µM | TGI (OVCAR-4 ovarian): > 100 µM | GI50 (NCI/ADR-RES ovarian): 30.6 µM | TGI (NCI/ADR-RES ovarian): > 100 µM | GI50 (SK-MEL-2 melanoma): 39.7 µM | TGI (SK-MEL-2 melanoma): > 100 µM | GI50 (COLO 205 colon): 56.8 µM | TGI (COLO 205 colon): > 100 µM | GI50 (LOX IMVI melanoma): 35.9 µM | TGI (LOX IMVI melanoma): > 100 µM | GI50 (A549 NSCLC): 12.3 µM | TGI (A549 NSCLC): > 100 µM | GI50 (U251 CNS): 12.6 µM | TGI (U251 CNS): > 100 µM | GI50 (SNB-75 CNS): 20.6 µM | TGI (SNB-75 CNS): 52.2 µM | GI50 (RPMI-8226 leukemia): 4.11 µM | TGI (RPMI-8226 leukemia): > 100 µM | GI50 (NCI-H226 lung): 49.3 µM | TGI (NCI-H226 lung): > 100 µM | GI50 (SF-295 CNS): 12.7 µM | TGI (SF-295 CNS): > 100 µM | GI50 (KM12 colon): 6.4 µM | TGI (KM12 colon): > 100 µM | GI50 (HCC-2998 colon): > 100 µM | TGI (HCC-2998 colon): > 100 µM | GI50 (SNB-19 CNS): > 100 µM | TGI (SNB-19 CNS): > 100 µM | GI50 (SF-268 CNS): 31.2 µM | TGI (SF-268 CNS): > 100 µM
